# Source: the supplement of paper PMC10307832
# Assays:
# Assay in all cases: relative viability (nuclei count vs DMSO), 5 days (fraction); higher = more cells survive
# Gemcitabine + Phenformin = compound: Nc1ccn([C@@H]2O[C@H](CO)[C@@H](O)C2(F)F)c(=O)n1 [Gemcitabine] + N=C(N)NC(=N)NCCc1ccccc1 [Phenformin] (partner 250 µM)
# Method in brief: (§1)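 After 5 days of treatment, lung cancer cells in 1536-well plates were fixed and stained in a single step (final 0.05% Triton X-100, 1% formaldehyde, 1 ug/ml Hoechst) and their nuclei counted on 4× images. Treatment had been applied by pin tool the day after seeding as one drug alone or as a fixed anchor-drug dose with five library-drug doses (not always all listed) in √10 steps. Relative viability is the nuclei count of treated wells divided by that of vehicle wells, and values are medians of duplicate plates.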
# Gemcitabine + OSI-027 = compound: Nc1ccn([C@@H]2O[C@H](CO)[C@@H](O)C2(F)F)c(=O)n1 [Gemcitabine] + COc1cccc2cc(-c3nc([C@H]4CC[C@H](C(=O)O)CC4)n4ncnc(N)c34)[nH]c12 [OSI-027] (partner 0.5 µM)
# Method in brief: as §1
# Gemcitabine + Trametinib = compound: Nc1ccn([C@@H]2O[C@H](CO)[C@@H](O)C2(F)F)c(=O)n1 [Gemcitabine] + CC(=O)Nc1cccc(-n2c(=O)n(C3CC3)c(=O)c3c(Nc4ccc(I)cc4F)n(C)c(=O)c(C)c32)c1 [Trametinib] (partner 0.02 µM)
# Method in brief: as §1
# Gemcitabine + Crizotinib = compound: Nc1ccn([C@@H]2O[C@H](CO)[C@@H](O)C2(F)F)c(=O)n1 [Gemcitabine] + C[C@@H](Oc1cc(-c2cnn(C3CCNCC3)c2)cnc1N)c1c(Cl)ccc(F)c1Cl [Crizotinib] (partner 1 µM)
# Method in brief: as §1
Cell Line,relative viability (Gemcitabine + Phenformin; first compound 0.001 µM),relative viability (Gemcitabine + Phenformin; first compound 0.003162 µM),relative viability (Gemcitabine + Phenformin; first compound 0.01 µM),relative viability (Gemcitabine + Phenformin; first compound 0.03162 µM),relative viability (Gemcitabine + Phenformin; first compound 0.1 µM),relative viability (Gemcitabine + OSI-027; first compound 0.001 µM),relative viability (Gemcitabine + OSI-027; first compound 0.003162 µM),relative viability (Gemcitabine + OSI-027; first compound 0.01 µM),relative viability (Gemcitabine + OSI-027; first compound 0.03162 µM),relative viability (Gemcitabine + OSI-027; first compound 0.1 µM),relative viability (Gemcitabine + Trametinib; first compound 0.001 µM),relative viability (Gemcitabine + Trametinib; first compound 0.003162 µM),relative viability (Gemcitabine + Trametinib; first compound 0.01 µM),relative viability (Gemcitabine + Trametinib; first compound 0.03162 µM),relative viability (Gemcitabine + Trametinib; first compound 0.1 µM),relative viability (Gemcitabine + Crizotinib; first compound 0.001 µM),relative viability (Gemcitabine + Crizotinib; first compound 0.003162 µM),relative viability (Gemcitabine + Crizotinib; first compound 0.01 µM),relative viability (Gemcitabine + Crizotinib; first compound 0.03162 µM),relative viability (Gemcitabine + Crizotinib; first compound 0.1 µM)
NCI-H1734,0.337,0.29,0.163,0.0972,0.106,0.506,0.343,0.166,0.121,0.111,0.705,0.44,0.193,0.135,0.1,0.8,0.48,0.246,0.106,0.104
NCI-H1755,0.582,0.651,0.482,0.4,0.336,0.789,0.715,0.57,0.34,0.272,0.759,0.749,0.736,0.616,0.328,0.92,0.845,0.681,0.268,0.218
NCI-H1792,0.291,0.104,0.0944,0.119,0.0679,0.639,0.486,0.285,0.227,0.154,0.414,0.183,0.0715,0.0564,0.0677,1.05,0.897,0.222,0.0949,0.0981
NCI-H1915,0.353,0.356,0.344,0.279,0.214,0.714,0.63,0.545,0.479,0.241,0.317,0.308,0.286,0.281,0.188,0.967,0.87,0.881,0.426,0.247
NCI-H1944,0.225,0.193,0.169,0.161,0.132,0.453,0.437,0.385,0.188,0.149,0.418,0.416,0.364,0.28,0.154,1.28,1.02,0.953,0.304,0.141
NCI-H1975,0.416,0.268,0.176,0.129,0.122,0.867,0.839,0.327,0.148,0.125,0.305,0.447,0.367,0.124,0.135,0.996,1.01,0.48,0.201,0.16
NCI-H1993,0.461,0.485,0.439,0.421,0.407,0.539,0.534,0.541,0.503,0.518,0.508,0.457,0.503,0.351,0.438,0.89,0.891,0.668,0.549,0.461
NCI-H2009,0.496,0.317,0.198,0.175,0.146,0.566,0.303,0.167,0.133,0.111,0.268,0.327,0.16,0.115,0.088,1.18,0.841,0.227,0.102,0.0943
